Values after ≈ are worked out from the molar mass of the structure shown. Read-outs that look alike come from different tables or passages of the source.
Experiments:
[1] = biological target: SARS-COV-2 M^pro-His6 (Severe acute respiratory syndrome coronavirus 2, UniProt P0DTD1); experiment: biochemical; format: biochemical
[2] = biological target: SARS-COV-2 M^pro (authentic N- and C-termini) (Severe acute respiratory syndrome coronavirus 2, UniProt P0DTD1); experiment: biochemical; format: biochemical; conditions: for M^pro Ki: 25 nM enzyme, 15 μM fluorescent peptide, Morrison equation, Inactive = less than 50% inhibition at 25 μM compound; for Ki,app: Table 5
[3] = Apparent solubility in PBS buffer; conditions: for solubility: PBS buffer with 2% DMSO, aqueous buffer, kinetic from dmso stock
[4] = biological target: T1, Human Cathepsin B (Homo sapiens, UniProt P07858); experiment: Cathepsin B assay; format: biochemical
T1 construct: purchased BPS Bioscience 79590
Method: A kit from BPS Bioscience (#79590) was used with adjustments to the manufacturer's protocol as follows: The activated enzyme was diluted 250-fold just before use, and the reaction was run at RT in black 96 half-area plates in a total reaction volume of 50 uL containing 0.01% Tween-20. Instead of measuring endpoints at 60 min the increase in fluorescence (Ex 360 nm, Em 460 nm) per second (RFU/s) was obtained from linear progress curves over 10 min. Fractional activities were calculated from reactions with no inhibitors. E-64 was used as a positive control.

[5] = Metabolic stability in mouse liver microsomes; format: in vitro ADME; conditions: 0.5 mg protein/mL, 2.0 μM compound, 1.0 mM NADPH
Method: (§1) The samples were collected at specific time-points 0, 30, and 60 min in duplicate. The reactions were terminated by adding an equivalent volume of ice-cold methanol and vortexed. […] Three μL of the supernatant was analyzed by UHPLC-Q Exactive Orbitrap MS (Thermo Fisher Scientific, USA) equipped with 50 mm×4.6 mm column (XDB C-18, Agilent Technologies, USA). The column temperature was maintained at 40° C. The flow rate was at 0.3 mL/min with a 30% mobile phase (acetonitrile containing 0.1% formic acid). Q Exactive MS was operated in positive mode with electrospray ionization. Ultra-pure nitrogen was applied as the sheath (45 arbitrary unit), auxiliary (10 arbitrary unit), sweep (1.0 arbitrary unit) and the collision gas. […] MS data were acquired from 80 to 1,200 Da in profile mode.

[6] = Metabolic stability in human liver microsomes; format: in vitro ADME; conditions: 0.5 mg protein/mL, 2.0 μM compound, 1.0 mM NADPH
Method: as §1

[7] = test system: SARS-COV-2 (USA_WA1/2020 isolate) in VERO E6 cells; experiment: Real-Time Cell Analysis (RTCA) assay of SARS-COV-2 replication; format: cell-based; conditions: VERO E6 cells, 75 h
[8] = biological target: T2, HOVPro-Gi.1 (Norovirus, UniProt Q83883); experiment: Thermal shift, HOVPro-Gi.1; format: binding; conditions: 50 µM
T2 construct: HOVPro-Gi.1
T2 sequence (Q83883 1101-1281): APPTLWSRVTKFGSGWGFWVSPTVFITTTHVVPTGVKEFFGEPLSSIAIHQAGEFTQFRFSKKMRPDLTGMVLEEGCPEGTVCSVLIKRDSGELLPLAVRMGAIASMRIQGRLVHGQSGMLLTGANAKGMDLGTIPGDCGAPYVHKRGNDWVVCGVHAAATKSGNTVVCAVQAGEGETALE

[9] = test system: HOVPro-Gii.4; experiment: Thermal shift, HOVPro-Gii.4; format: binding; conditions: 50 µM
[10] = biological target: SARS-CoV-2 main protease (M^pro) (Severe acute respiratory syndrome coronavirus 2, UniProt P0DTD1); experiment: Protein thermal shift stability assay (SYPRO Orange); format: binding; conditions: 50 μM compound; […]; 50 µM
[11] = biological target: T3, human thrombin (Homo sapiens, UniProt P00734); experiment: Thrombin fluorescence assay; format: biochemical; conditions: fluorescence assay
T3 construct: purchased Sigma-Aldrich MAK243

[12] = Table 3, column a (footnote not given), read-out: Kiapp (nM)^a
[13] = Table 3, column b (footnote not given), read-out: Kiapp (nM)^b
[14] = Table 3, column a (footnote not given)
[15] = Table 3, column b (footnote not given)
[16] = Ki, app towards SARS-CoV-2 M^pro, athentic termini, authentic termini
[17] = Kiapp (nM)^b, Table 3, column b (footnote not given)
[18] = 25 nM enzyme, 15 μM fluorescent peptide, Morrison equation, Inactive = less than 50% inhibition at 25 μM compound

CNC(=O)[C@H]1C[C@H](n2c(-c3cncc4ccccc34)nc3cccc(C(=O)NC(C)C)c32)C1 [CDD-1842]
Kiapp (nM)^a [1]: Inactive
Kiapp (nM)^b [2]: Inactive

CCC[C@H](NC(=O)c1cccc2nc(-c3cccnc3)n([C@H]3C[C@H](C(=O)NC)C3)c12)c1ccc(C(F)(F)F)cc1 [CDD-1831]
Kiapp (nM)^a [1]: Inactive
Kiapp (nM)^b [2]: Inactive

CCC[C@H](NC(=O)c1cccc2nc(-c3cncc4ccccc34)n(C3CCNCC3)c12)c1ccc(C(F)(F)F)cc1 [CDD-1818]
Ki [1, 12]: 1470 ± 152 nM
Ki [2, 13]: 1710 ± 128 nM

CNC(=O)CCCn1c(-c2ccc3cccnc3n2)nc2cccc(C(=O)N[C@@H](C)c3ccc4ccccc4c3)c21 [CDD-1905]
Kiapp (nM)^a [1, 14]: Inactive
Kiapp (nM)^b [2, 15]: Inactive

CCC[C@H](NC(=O)c1cccc2nc(-c3cncc4ccccc34)n(CCCC(=O)NC)c12)c1ccc(C)cc1 [CDD-1934]
Ki [2, 13]: 27.4 ± 2.4 nM

CNC(=O)CCCn1c(-c2cncc3ccccc23)nc2cccc(C(=O)NCc3ccc4ccccc4c3)c21 [CDD-1925]
Ki [1, 12]: 51.3 ± 7.5 nM
Ki [2, 13]: 42.5 nM

C[C@H](NC(=O)c1cccc2nc(-c3cncc4ccccc34)n(CCCC(=O)O)c12)c1ccc2ccccc2c1 [CDD-1972]
Ki [2, 13]: 87.9 ± 8.4 nM

CCC[C@H](NC(=O)c1cccc2nc(-c3cncc4ccccc34)n(C3CCC3)c12)c1ccc(C(F)(F)F)cc1 [CDD-1806]
solubility [3]: 0.1 µM (≈ 0.0543 µg/mL)
Human Cathepsin B, Fractional Remaining Activity [4]: 0.94
Ki [1]: 165 ± 12.9 nM
Ki [2, 16]: 137 nM
Ki [2, 17]: 137 ± 11.6 nM

CNC(=O)[C@H]1C[C@H](n2c(-c3cncc4ccccc34)nc3cccc(C(=O)N[C@@H](C)c4ccccc4)c32)C1 [CDD-1841]
Ki [1, 12]: 571 ± 72.7 nM
Ki [2, 13]: 565 ± 55.3 nM

CNC(=O)CCCn1c(-c2ccnc3ccccc23)nc2cccc(C(=O)N[C@@H](C)c3ccc4ccccc4c3)c21 [CDD-1906]
Kiapp (nM)^a [1, 14]: Inactive
Kiapp (nM)^b [2, 15]: Inactive

COc1cc(-c2cccc3[nH]ncc23)cc(C(=O)CO)c1OCC(=O)N(C)C [CDD-1886]
Ki ([1]; 25 nM enzyme, 15 μM fluorescent peptide, Morrison equation, Inactive = less than 50% inhibition at 25 μM compound, read-out: M^pro-His Ki): 15700 ± 1200 nM
decrease of M^pro inhibition relative to CDD-1713 [2]: greater than 100 fold
Ki ([2]; read-out: M^pro Ki): 21200 ± 1500 nM

Cc1nnc2n1-c1ccc(Cl)cc1C(c1ccccc1)=NC2 [Alprazolam, reference compound]
MLM t1/2 (half-life) [5]: 296
HLM t1/2 (half-life) [6]: 832

CCC[C@H](NC(=O)c1cccc2nc(-c3cncc4ccccc34)n([C@H]3C[C@H](C(=O)NC)C3)c12)c1ccccc1 [CDD-1843]
Kiapp (nM)^a [1, 14]: Inactive
Kiapp (nM)^b [2, 15]: Inactive

CNC(=O)CCCn1c(-c2ccc3cnccc3c2)nc2cccc(C(=O)N[C@@H](C)c3ccc4ccccc4c3)c21 [CDD-1884]
Kiapp (nM)^a [1, 14]: Inactive
Kiapp (nM)^b [2, 15]: Inactive

CCC[C@H](NC(=O)c1cccc2nc(-c3cncc4ccccc34)n(C(C)C)c12)c1ccc(C(F)(F)F)cc1 [CDD-1804]
Kiapp (nM)^a [1, 14]: Inactive
Kiapp (nM)^b [2, 15]: Inactive

O=C1CCOc2ccc(-c3cccc4[nH]ncc34)cc21 [CDD-2037]
M^pro-His Ki [1, 18]: Inactive
M^pro Ki [2]: Inactive

COc1cc(-c2cccc3[nH]ncc23)cc(CO)c1OCC(=O)N(C)C [CDD-1776]
M^pro-His Ki [1, 18]: Inactive
M^pro inhibition (in words) [2]: completely abolished the activity
M^pro Ki [2]: Inactive
Ki,app [2]: Inactive

CNC(=O)CCCn1c(-c2cnccc2C)nc2cccc(C(=O)N[C@@H](C)c3ccc4ccccc4c3)c21 [CDD-1924]
Ki [2, 13]: 426 ± 46.4 nM

CCOC(=O)/C=C/c1cc(-c2cccc3[nH]ncc23)cc(OC)c1OCC(=O)N(C)C [CDD-1971]
M^pro-His Ki [1, 18]: Inactive
M^pro Ki [2]: Inactive

CN(C)C(=O)COc1ccc(-c2cccc3[nH]ncc23)cc1C#N [CDD-2038]
M^pro-His Ki [1, 18]: Inactive
M^pro Ki [2]: Inactive

CNC(=O)[C@H]1C[C@H](n2c(-c3cncc4ccccc34)nc3cccc(C(=O)NC(C)c4ccc(C(F)(F)F)cc4)c32)C1 (some centres unmarked) [CDD-1829]
Ki [1, 12]: 45.7 ± 3.7 nM
Ki [2, 13]: 47.9 ± 4.7 nM

CCC[C@H](NC(=O)c1cccc2nc(-c3cncc4ccccc34)n([C@H]3CC[C@H](C(=O)NC)C3)c12)c1ccc(C(F)(F)F)cc1 [CDD-1790]
solubility [3]: 52.1 µM (≈ 32 µg/mL)
Ki [1, 12]: 621 ± 46 nM
Ki [2, 16]: 663 nM
Ki [2, 13]: 663 ± 66 nM

CNC(=O)CCCn1c(-c2ccc(N)nc2)nc2cccc(C(=O)N[C@@H](C)c3ccc4ccccc4c3)c21 [CDD-1926]
Kiapp (nM)^a [1, 14]: Inactive
Kiapp (nM)^b [2, 15]: Inactive

CCC[C@H](NC(=O)c1cccc2nc(-c3cncc4ccccc34)n([C@H]3C[C@H](C(=O)NC)C3)c12)c1cccc(C(F)(F)F)c1 [CDD-1795]
solubility [3]: 50.4 µM (≈ 30.2 µg/mL)
Human Cathepsin B, Fractional Remaining Activity [4]: 1.07
Ki [1, 12]: 29.4 ± 4.3 nM
Ki [2, 16]: 35.2 nM
Ki [2, 17]: 35.2 ± 4.9 nM

COc1cc(-c2cccc3c2cnn3C)cc(C=O)c1OCC(=O)N(C)C [CDD-1847, 2-(2-formyl-6-methoxy-4-(1-methyl-1H-indazol-4-yl)phenoxy)-N,N-dimethylacetamide]
M^pro-His Ki [1, 18]: Inactive
M^pro inhibition (in words) [2]: completely lost activity
M^pro Ki [2]: Inactive
prevention of SARS-COV-2 induced cell death (in words) [7]: unable to prevent cell death

CCC[C@H](NC(=O)c1cccc2nc(-c3cncc4ccccc34)n(CCCC(=O)NC)c12)c1ccc(C(F)(F)F)cc1 [CDD-1830]
Ki [1, 12]: 5.6 ± 0.5 nM
Ki [2, 13]: 6.5 ± 1 nM

CCCC(NC(=O)c1cccc2nc(-c3cncc4ccccc34)n([C@H]3C[C@H](C(=O)NC)C3)c12)c1ccc(C(F)(F)F)cc1 (some centres unmarked) [CDD-1732]
Measured apparent solubility in PBS buffer (2% DMSO) ([3]; PBS buffer, 2% DMSO): 26.9 µM
ΔTm of HOVPro-Gi.1 at 50 μM compound conc. [8]: −0.82 °C
ΔTm of HOVPro-Gii.4 at 50 μM compound conc. [9]: −1.24 °C
ΔTm of Mpro at 50 μM compound conc. [10]: 0.61 °C
Thrombin inhibition [11]: None

COc1cc(-c2cccc3[nH]ncc23)ccc1OCC(=O)N(C)C [CDD-1793, 2-(4-(1H-indazol-4-yl)-2-methoxyphenoxy)-N,N-dimethylacetamide]
M^pro-His Ki [1, 18]: Inactive
M^pro inhibition (in words) [2]: completely abolished the activity
M^pro Ki [2]: Inactive
Ki,app [2]: Inactive

CNC(=O)CCCn1c(-c2cccc3ccccc23)nc2cccc(C(=O)N[C@@H](C)c3ccc4ccccc4c3)c21 [CDD-1885]
Kiapp (nM)^a [1, 14]: Inactive
Kiapp (nM)^b [2, 15]: Inactive

COC(=O)c1cc(-c2cccc3[nH]ncc23)cc(OC)c1OCC(=O)N(C)C [CDD-1982]
M^pro-His Ki [1, 18]: Inactive
M^pro Ki [2]: Inactive

COc1cc(-c2cccc3[nH]ncc23)cc(C(C)=O)c1OCC(=O)N(C)C [CDD-1883]
M^pro-His Ki [1, 18]: Inactive
M^pro Ki [2]: Inactive

Source: patent publication US20250276955A1, “CORONAVIRUS MAIN PROTEASE INHIBITORS AND METHODS USING SAME” (Baylor College of Medicine, priority 2021, published 2025)
